Experimental data: patent publication US9216181B2 (Southwest Research Institute, priority 2011, dated 2015)

Assays:
[1] = test system: BMP-2; assay: Study II real time PCR, BMP-2 up-regulation in mesenchymal stem cells; assay type: cell-based, human; settings: hMSC, 24 hour, 2.5, 5 and 10 μM
Experimental: The testing procedure follows.
Cells based assays are done using 6 wells tissue culture plates, seeded with human mesenchymal stem cells (MSC) from Lonza, culture at 80% density. After seeding cells are treated with selected compounds at 10 μM, 5 μM and 2.5 μM for a 24 hour period, mRNA is collected using Qiagen kit RNAeasy kit and cDNA is prepared with same Qiagen kit, RT-PCR is done using kit from SABiosciences to measure gene expression for BMP2, 4 and 7 and run in Applied Biosystems Step One Plus. The protocol for mRNA isolation is described below.
Human mesenchymal stem cell growth medium passage 3 plated in a 6 well plate at 2.5×10^5 cells/well in hMSC Basal Medium+BulletKit (50 ml Growth Supplement, 10 ml L-Glutamine and 0.5 ml Gentamicin Sulfate Amphotericin-B) for 24 hrs. The compounds to be tested were added and after 24 hrs the media was aspirated, rinsed well once with PBS, and aspirated again. 350 ul of Lysis Buffer was added and the cells were stored at −20° C.
The lysate was homogenized by pipetting the lysate directly into a QIA shredder spin column placed in a 2-mL collection tube, and centrifuge for 2 min at full speed. 70% ethanol was added (1 vol. or […]) to the homogenized lysate (now at the bottom of the collection tube), and mixed well by pipetting. Up to 700 μL of the sample was transferred, including any precipitate that may have formed, to an RNeasy spin column placed in a 2-mL collection tube. This was centrifuged for 15 seconds at full speed. 700 μL of Buffer RW1 was added to the RNeasy spin column. This was centrifuged for 15 seconds at full speed to wash the spin column membrane.
500 μL of Buffer RPE was added to the RNeasy spin column and centrifuged for 15 seconds at full speed. The flow through was discarded. 500 μL of Buffer RPE was added to the RNeasy spin column and centrifuged for 2 minutes at full speed to wash the spin column membrane. The RNeasy spin column was removed from the collection tube and the flow-through was discarded.
The RNeasy spin column was placed in a new 2-mL collection tube and centrifuged for 1 minute at full speed. The RNeasy spin column was removed from the collection tube, and the flow-through was discarded. The RNeasy spin column was placed in a new 1.5-mL collection tube. 30-50 μL of RNase-free water was added directly to the spin column membrane and this was centrifuged for 1 minute at full speed to elute the RNA.

[2] = test system: murine calvaria bone; assay: Anabolic assay using murine calvaria, histology (Study II); assay type: cell-based, mouse; settings: calvaria of 4 day old pups, 5-20 μM, day 4 and day 7, 10× microscopy
Experimental: To investigate the biological effects on bone of the compounds from the PCR assays a number of assays were performed using murine calvaria bone as follows. Following procedures similar to those outlined above in Study I, murine calvaria bone was removed from 4 day old pups form CD-1 time pregnant mice from Harlan (15 day gestation at time of arrival). The pups were decapitated with scissors after dipping the pups in 95% ethanol. The scalp was then removed. The heads were placed in a Petri dish with BGJ medium. The calvaria bones were cut using curved scissors to make a cut along the suture of the calvaria bone and the two parts were carefully removed from the brain. The calvaria were trimmed avoiding the suture area. The collected tissue was placed into media (3 bones per group) including BGJ+L-Glutamine with 1% Pen/Strep and 1% BSA. The dish including the bones was placed into a 37° C. and 5% CO2 incubator.
The selected compounds were prepared in a solution of dimethyl sulfoxide (DMSO) to form stock solutions of each compound, with the exception of terfenadine, which was prepared in ethanol. Specifically, a 10 mM stock solution was prepared for PS1, a 25 mM stock solution was prepared for carebastine and a 50 mM stock solution was prepared for ebastine, #6 terfenadine, fexofenadine and astemizole. […]

[3] = test system: BMP-2; assay: BMP-2 fold change of JHU library compounds, confirmed by qPCR; assay type: cell-based, human; settings: non-treated = 1.00
Source text: To further verify the technique, a 2T3 mouse pre-osteoblast cell line derived from calvaria courtesy of Dr. Steve Harris, UTHSCSA, was utilized to visually screen the compounds of the BIOMOL library and JHU libraries, purchased from John Hopkins University including 2387 compounds (solution in wells). Specifically, Murine 2T3 were thawed from one frozen cryovial and re-seeded into two T-75 tissue culture flasks grown in Alpha MEM with 10% FBS, Glutamine, and Pen/Strip antibiotics. Cells were incubated in a humidified 37° C. under 5% CO2 for 48 hours or when cells reached 80% confluence. After reaching confluency, the 2T3 were trypsinized and resuspended in pre-warm growth media to a cell density of 5×10^4 cells/mL. Approximately 100 uL of cell suspension was seeded to a 96 well plate to give a final 5,000 cells per well. Plate was incubated overnight at 37° C. and spent media was aspirated and replace with 100 uL of growth media with 5-10 uM of presumptive drug compounds. A set of controls were untreated and treated with 10 uM of Lovastatin to be used as a visual reference morphological screening.
Human mesenchymal stem cells (LONZA, Catalog PT2501) were maintained in Mesenchymal stem cells basal media (MSCBM CAT#PT-3238). Early passage cells were plated in triplicate at 2×10^4 cells/cm^2 using six well tissue culture plates and grown in humidified 5% CO2 at 37° C. for 24 hours. Spent media was replaced by assay media of drugs to be tested in same media as above at 10 μM final concentration. Untreated cells were used as the control group. […] RNA concentration and integrity was assessed by absorbance 260/280 and electrophoresis in 1% Agarose with formaldehyde loading dye. For TaqMan gene expression, cDNA was synthesized from 2 μg of total RNA using the High Capacity cDNA Reverse Transcription Kit (Applied Biosystems, Cat. 4368814). The resulting cDNA were diluted 1:100 for TaqMan and amplified by real-time quantitative PCR. […] A cocktail of universal master mix (Applied Biosystems, 4369016) were prepared individually for both set of primers which contained Taq Polymerase, dNTPs, and buffer. Template cDNA's were added separately to respective individual wells in triplicate samples. The PCR were performed on StepOne Plus Real Time System instrument (Applied Biosystems). The amplification program consisted of 1 cycle of 95° C. with 10 minute hold (hot start) followed by 50 cycles of 95° C. with 15 second annealing hold and 1 minute 60° C. specified acquisition hold. […] Change in gene expression was determined by the expression ΔΔCt relative method.
Included in the tables is the target or common medical use for each compounds.

[4] = test system: BMP2; assay: Quantitative PCR (TaqMan, ΔΔCt) of BMP2 in human mesenchymal stem cells; assay type: cell-based; settings: Homo sapiens, Mesenchymal stem cells; BMP2 mRNA, hMSC, 10 μM, vs untreated, 18S reference; positive control compounds (Table 1); read-out: q-PCR Fold increase
[5] = test system: C3H10T1/2 cells; assay: Visual observation of morphological differentiation of C3H10T1/2 MSC; assay type: cell-based, mouse; settings: enhanced medium withdrawn before addition
Experimental: The C3H10T1/2 cells were grown in an enhanced growth medium of BGjb (Irvine Scientific, Santa Ana, Calif.).

[6] = test system: BMP-2; assay: Real time PCR of BMP-2 gene expression in human MSC (Cells-to-Ct); assay type: cell-based; settings: BMP-2 mRNA, hMSC, 5-10 μM, 24 hours, vs untreated; positive control compounds (Table 1)

CC(C)(C(=O)O)c1ccc(C(=O)CCCN2CCC(OC(c3ccccc3)c3ccccc3)CC2)cc1 [Carebastine] was tested, and the “fold change (PCR)” value [1] was ≤ 1 fold and the “activity in bone calvaria assay / effect on BMP-2 gene expression, qualitative histology” value [2] was “relatively active”.
For CC[C@H](C)C(=O)O[C@H]1C[C@@H](C)C=C2C=C[C@H](C)[C@H](CC[C@@H]3C[C@@H](O)CC(=O)O3)[C@H]21 [Lovastatin], the fold induction at 10 µM ([3]; Homo sapiens, read-out: Fold change (BMP-2), control compounds at 10 μM) was 18, the “Fold change (BMP-2)” value ([3]; JHU library compounds) was 182.00 fold and the fold induction at 10 µM [4] was 10.7. For the same compound, the “morphological changes by visual observation” value [5] was “generated more elongated looking cells with slowed cell proliferation” and the “RT PCR Fold increase” value [6] was 59.9 fold.
